The values below are quoted from earlier work in patent US20250032643A1, “SYNTHETIC RECEPTORS” (UCL BUSINESS LTD, priority 2021, published 2025).

The data set concerns the target T1, α1B (Homo sapiens, UniProt P35368).
T1 sequence (P35368 1-520): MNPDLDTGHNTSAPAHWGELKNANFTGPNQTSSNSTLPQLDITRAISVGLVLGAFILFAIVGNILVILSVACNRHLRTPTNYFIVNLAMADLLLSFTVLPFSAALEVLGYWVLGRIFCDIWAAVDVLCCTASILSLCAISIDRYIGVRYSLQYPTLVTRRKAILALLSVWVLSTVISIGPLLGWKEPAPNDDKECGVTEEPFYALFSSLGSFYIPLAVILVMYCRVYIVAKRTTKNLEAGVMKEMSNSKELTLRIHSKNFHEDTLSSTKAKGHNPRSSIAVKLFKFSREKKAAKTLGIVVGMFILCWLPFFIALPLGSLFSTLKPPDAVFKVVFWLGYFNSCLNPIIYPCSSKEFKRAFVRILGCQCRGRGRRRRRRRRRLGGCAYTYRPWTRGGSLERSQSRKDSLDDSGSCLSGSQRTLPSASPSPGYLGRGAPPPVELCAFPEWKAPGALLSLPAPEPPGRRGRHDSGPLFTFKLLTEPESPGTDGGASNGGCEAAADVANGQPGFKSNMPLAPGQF
The following applies: read-out: binding affinity; native α1B receptor.

In the case of `CN(C)CCOC(c1ccccc1)c1ccccc1` [DPH, diphenhydramine], the Ki was more than 1 µM.
